Assay results reported in US9422338B2 (EpoDose LLC, priority 2011, dated 2016).

Target: T1, EPOR (erythropoietin receptor), human recombinant, NSO cells (Homo sapiens, UniProt P19235)
T1 construct: host or cells: NSO cells
T1 sequence (P19235 25-250 limits assumed): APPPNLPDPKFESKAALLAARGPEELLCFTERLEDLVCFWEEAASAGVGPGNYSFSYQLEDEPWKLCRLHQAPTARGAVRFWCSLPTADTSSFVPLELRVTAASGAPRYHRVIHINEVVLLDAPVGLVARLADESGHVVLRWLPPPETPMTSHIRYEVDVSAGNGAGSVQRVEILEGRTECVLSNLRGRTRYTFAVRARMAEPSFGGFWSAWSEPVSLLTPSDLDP
Experiment: EPOR radioligand binding assay ([125I] Erythropoietin competition)
Procedure: IC50 values were determined by a non-linear, least squares regression analysis using MATHIQ™ (computer software for integrating mathematical functions into new or existing software). […] Where presented, the Hill coefficient (nH), defining the slope of the competitive binding curve, was calculated using MATHIQ™.

[1] = Example 1, mimetics varied in N-end, loop and mid sequences
[2] = Example 2, mimetics varied in loop, mid and C-end

SMILES: CSCC[C@@H]1NC(=O)[C@H](Cc2c[nH]cn2)NC(=O)C(NC(=O)[C@H](CC(C)C)NC(=O)[C@H](Cc2ccc(O)cc2)NC(=O)[C@H](CC(N)=O)NC(C)=O)CCOCC(C(=O)N[C@@H](CCCCNC(=N)N)C(=O)N2CCC[C@H]2C(=O)NCCCCC(=O)NCCCCC(NC(=O)[C@@H]2CCCN2C(=O)[C@H](CCCCNC(=N)N)NC(=O)C2COCCC(NC(=O)[C@H](CC(C)C)NC(=O)[C@H](Cc3ccc(O)cc3)NC(=O)[C@H](CC(N)=O)NC(C)=O)C(=O)N[C@@H](Cc3c[nH]cn3)C(=O)N[C@@H](CCSC)C(=O)N3CCC[C@H]3C(=O)N[C@@H](Cc3c[nH]c4ccccc34)C(=O)N[C@@H](C(C)C)C(=O)N2)C(N)=O)NC(=O)[C@H](C(C)C)NC(=O)[C@H](Cc2c[nH]c3ccccc23)NC(=O)[C@@H]2CCCN2C1=O (stereo partly drawn) [AC-0005-054]
- Ki [1]: 15.5 nM
- IC50 (Example 3): 65.1 nM
- Ki (Example 3, Cheng-Prusoff): 30.9 nM
- IC50 (Example 4, fifth table): 33 nM

SMILES: CSCC[C@@H]1NC(=O)[C@H](CCCNC(=N)N)NC(=O)C(NC(=O)[C@H](CC(C)C)NC(=O)[C@H](Cc2ccc(O)cc2)NC(=O)[C@H](CC(N)=O)NC(C)=O)CCOCC(C(=O)N[C@@H](CCCCN)C(=O)N2CCC[C@H]2C(=O)NCCCCC(=O)NCCCCC(NC(=O)[C@@H]2CCCN2C(=O)[C@H](CCCCN)NC(=O)C2COCCC(NC(=O)[C@H](CC(C)C)NC(=O)[C@H](Cc3ccc(O)cc3)NC(=O)[C@H](CC(N)=O)NC(C)=O)C(=O)N[C@@H](CCCNC(=N)N)C(=O)N[C@@H](CCSC)C(=O)N[C@@H](CC(C)C)C(=O)N[C@@H](Cc3c[nH]c4ccccc34)C(=O)N[C@@H](C(C)C)C(=O)N2)C(N)=O)NC(=O)[C@H](C(C)C)NC(=O)[C@H](Cc2c[nH]c3ccccc23)NC(=O)[C@H](CC(C)C)NC1=O (stereo partly drawn) [AC-0005-024]
- Ki [1]: 34 nM
- IC50 (Example 4, fourth table): 72 nM

SMILES: CSCC[C@@H]1NC(=O)[C@H](CCCNC(=N)N)NC(=O)C(NC(=O)[C@H](CC(C)C)NC(=O)[C@H](Cc2ccc(O)cc2)NC(=O)[C@H](CC(N)=O)NC(C)=O)CCOCC(C(=O)N[C@@H](CCCCNC(=N)N)C(=O)N2CCC[C@H]2C(=O)NCCCOCCC(OCCCNC(=O)[C@@H]2CCCN2C(=O)[C@H](CCCCNC(=N)N)NC(=O)C2COCCC(NC(=O)[C@H](CC(C)C)NC(=O)[C@H](Cc3ccc(O)cc3)NC(=O)[C@H](CC(N)=O)NC(C)=O)C(=O)N[C@@H](CCCNC(=N)N)C(=O)N[C@@H](CCSC)C(=O)N3CCC[C@H]3C(=O)N[C@@H](Cc3ccc4ccccc4c3)C(=O)N[C@@H](C(C)C)C(=O)N2)C(N)=O)NC(=O)[C@H](C(C)C)NC(=O)[C@H](Cc2ccc3ccccc3c2)NC(=O)[C@@H]2CCCN2C1=O (stereo partly drawn) [AC-0005-064]
- Ki [2]: 0.6 nM
- IC50 (Example 4, sixth table): 1.3 nM

SMILES: CSCC[C@H]1COC2CCCC2C(=O)N[C@@H](Cc2c[nH]c3ccccc23)C(=O)N[C@@H](C(C)C)C(=O)NC(C(=O)N[C@@H](CCCCNC(=N)N)C(=O)N2CCC[C@H]2C(=O)NCCCCC(=O)NCCCCC(NC(=O)[C@@H]2CCCN2C(=O)[C@H](CCCCNC(=N)N)NC(=O)C2COCCC(NC(=O)[C@H](CC(C)C)NC(=O)[C@H](Cc3ccc(O)cc3)NC(=O)[C@H](CC(N)=O)NC(C)=O)C(=O)N[C@@H](CCCNC(=N)N)C(=O)N[C@@H](CCSC)COC3CCCC3C(=O)N[C@@H](Cc3c[nH]c4ccccc34)C(=O)N[C@@H](C(C)C)C(=O)N2)C(N)=O)COCCC(NC(=O)[C@H](CC(C)C)NC(=O)[C@H](Cc2ccc(O)cc2)NC(=O)[C@H](CC(N)=O)NC(C)=O)C(=O)N[C@@H](CCCNC(=N)N)C(=O)N1 (stereo partly drawn) [AC-0005-057]
- NH (Hill coefficient) (Example 3, slope of competitive binding curve): 1.84
- Ki (AC-0005-002)/Ki (Example 4, fifth table, Ki relative to that of AC-0005-002): 379
- Ki/Ki(EPO) (Example 4, fifth table, Ki relative to that of EPO): 128

SMILES: CSCC[C@@H]1NC(=O)[C@H](CCCNC(=N)N)NC(=O)C(NC(=O)[C@H](CC(C)C)NC(=O)[C@H](Cc2ccc(O)cc2)NC(=O)[C@H](CC(N)=O)NC(C)=O)CCOCC(C(=O)N[C@@H](CCCCN)C(=O)N2CCC[C@H]2C(=O)NC(CCCCNC(=O)CCCC(NC(=O)[C@@H]2CCCN2C(=O)[C@H](CCCCN)NC(=O)C2COCCC(NC(=O)[C@H](CC(C)C)NC(=O)[C@H](Cc3ccc(O)cc3)NC(=O)[C@H](CC(N)=O)NC(C)=O)C(=O)N[C@@H](CCCNC(=N)N)C(=O)N[C@@H](CCSC)C(=O)N3CCC[C@H]3C(=O)N[C@@H](Cc3ccc4ccccc4c3)C(=O)N[C@@H](C(C)C)C(=O)N2)C(=O)N[C@@H](CCCNC(=N)N)C(N)=O)C(=O)N[C@@H](CCCNC(=N)N)C(N)=O)NC(=O)[C@H](C(C)C)NC(=O)[C@H](Cc2ccc3ccccc3c2)NC(=O)[C@@H]2CCCN2C1=O (stereo partly drawn) [AC-0005-061]
- Ki [2]: 27.7 nM
- IC50 (Example 4, sixth table): 58.5 nM

SMILES: CSCC[C@@H]1NC(=O)[C@H](CCCNC(=N)N)NC(=O)C(NC(=O)[C@H](CC(C)C)NC(=O)[C@H](Cc2ccc(O)cc2)NC(=O)[C@H](CC(N)=O)NC(C)=O)CCOCC(C(=O)N[C@@H](CCCCNC(=N)N)C(=O)N2CCC[C@H]2C(=O)NC(CCCCNC(=O)CCCC(NC(=O)[C@@H]2CCCN2C(=O)[C@H](CCCCNC(=N)N)NC(=O)C2COCCC(NC(=O)[C@H](CC(C)C)NC(=O)[C@H](Cc3ccc(O)cc3)NC(=O)[C@H](CC(N)=O)NC(C)=O)C(=O)N[C@@H](CCCNC(=N)N)C(=O)N[C@@H](CCSC)C(=O)N3CCC[C@H]3C(=O)N[C@@H](Cc3ccc4ccccc4c3)C(=O)N[C@@H](C(C)C)C(=O)N2)C(=O)NCCC(=O)N[C@@H](CCCNC(=N)N)C(N)=O)C(=O)NCCC(=O)N[C@@H](CCCNC(=N)N)C(N)=O)NC(=O)[C@H](C(C)C)NC(=O)[C@H](Cc2ccc3ccccc3c2)NC(=O)[C@@H]2CCCN2C1=O (stereo partly drawn) [AC-0005-063]
- Ki [2]: 1 nM
- IC50 (Example 4, sixth table): 2.2 nM

SMILES: CC[C@H](C)[C@@H]1NC(=O)[C@@H]2CCCN2C(=O)CNC(=O)[C@H](CCSC)NC(=O)[C@H](CCCNC(=N)N)NC(=O)C(NC(=O)[C@H](C)NC(=O)[C@H](Cc2ccc(O)cc2)NC(=O)[C@H](CC(C)C)NC(C)=O)CCOCC(C(=O)NCCCCC(=O)NCCCCC(NC(=O)C2COCCC(NC(=O)[C@H](C)NC(=O)[C@H](Cc3ccc(O)cc3)NC(=O)[C@H](CC(C)C)NC(C)=O)C(=O)N[C@@H](CCCNC(=N)N)C(=O)N[C@@H](CCSC)C(=O)NCC(=O)N3CCC[C@H]3C(=O)N[C@@H]([C@@H](C)CC)C(=O)N[C@@H]([C@@H](C)O)C(=O)N[C@@H](Cc3cccc4ccccc34)C(=O)N[C@@H](C(C)C)C(=O)N2)C(N)=O)NC(=O)[C@H](C(C)C)NC(=O)[C@H](Cc2cccc3ccccc23)NC(=O)[C@H]([C@@H](C)O)NC1=O (stereo partly drawn) [AC-0005-008]
- IC50 (Example 4, first table): > 10000 nM

SMILES: CC[C@H](C)[C@@H]1NC(=O)[C@@H]2CCCN2C(=O)CNC(=O)[C@H](CCSC)NC(=O)[C@H](Cc2c[nH]cn2)NC(=O)C(NC(=O)[C@H](C)NC(=O)[C@H](Cc2ccc(O)cc2)NC(=O)[C@H](CC(C)C)NC(C)=O)CCOCC(C(=O)N[C@@H](CCC(N)=O)C(=O)N2CCC[C@H]2C(=O)NCCCCC(=O)NCCCCC(NC(=O)[C@@H]2CCCN2C(=O)[C@H](CCC(N)=O)NC(=O)C2COCCC(NC(=O)[C@H](C)NC(=O)[C@H](Cc3ccc(O)cc3)NC(=O)[C@H](CC(C)C)NC(C)=O)C(=O)N[C@@H](Cc3c[nH]cn3)C(=O)N[C@@H](CCSC)C(=O)NCC(=O)N3CCC[C@H]3C(=O)N[C@@H]([C@@H](C)CC)C(=O)N[C@@H]([C@@H](C)O)C(=O)N[C@@H](Cc3cccc4ccccc34)C(=O)N[C@@H](C(C)C)C(=O)N2)C(N)=O)NC(=O)[C@H](C(C)C)NC(=O)[C@H](Cc2cccc3ccccc23)NC(=O)[C@H]([C@@H](C)O)NC1=O (stereo partly drawn) [AC-0005-007]
- IC50 (Example 4, first table): 4950 nM
- Ki (Example 4, first table): 2350 nM

SMILES: CSCC[C@@H]1NC(=O)[C@H](CCCNC(=N)N)NC(=O)C(NC(=O)[C@H](CC(C)C)NC(=O)[C@H](Cc2ccc(O)cc2)NC(=O)[C@H](CC(N)=O)NC(C)=O)CCOCC(C(=O)N[C@@H](CCCNC(=N)N)C(=O)N2CCC[C@H]2C(=O)NCCCCC(=O)NCCCCC(NC(=O)[C@@H]2CCCN2C(=O)[C@H](CCCNC(=N)N)NC(=O)C2COCCC(NC(=O)[C@H](CC(C)C)NC(=O)[C@H](Cc3ccc(O)cc3)NC(=O)[C@H](CC(N)=O)NC(C)=O)C(=O)N[C@@H](CCCNC(=N)N)C(=O)N[C@@H](CCSC)C(=O)NCC(=O)N[C@@H](Cc3c[nH]c4ccccc34)C(=O)N[C@@H](C(C)C)C(=O)N2)C(N)=O)NC(=O)[C@H](C(C)C)NC(=O)[C@H](Cc2c[nH]c3ccccc23)NC(=O)CNC1=O (stereo partly drawn) [AC-0005-020]
- Ki [1]: 44 nM
- IC50 (Example 4, fourth table): 93 nM

SMILES: CSCC[C@@H]1NC(=O)[C@H](CCCNC(=N)N)NC(=O)C(NC(=O)[C@H](CC(C)C)NC(=O)[C@H](Cc2ccc(O)cc2)NC(=O)[C@H](CC(N)=O)NC(C)=O)CCOCC(C(=O)N[C@@H](CCCCNC(=N)N)C(=O)N2CCC[C@H]2C(=O)NCCCCC(=O)NCCCCC(NC(=O)[C@@H]2CCCN2C(=O)[C@H](CCCCNC(=N)N)NC(=O)C2COCCC(NC(=O)[C@H](CC(C)C)NC(=O)[C@H](Cc3ccc(O)cc3)NC(=O)[C@H](CC(N)=O)NC(C)=O)C(=O)N[C@@H](CCCNC(=N)N)C(=O)N[C@@H](CCSC)C(=O)N3CCC[C@H]3C(=O)N[C@@H](Cc3ccc4ccccc4c3)C(=O)N[C@@H](C(C)C)C(=O)N2)C(N)=O)NC(=O)[C@H](C(C)C)NC(=O)[C@H](Cc2ccc3ccccc3c2)NC(=O)[C@@H]2CCCN2C1=O (stereo partly drawn) [AC-0005-055]
- Ki [1]: 4.8 nM
- Ki [2]: 6 nM
- IC50 (Example 3): 11 nM
- Ki (Example 3, Cheng-Prusoff): 5.23 nM
- IC50 (Example 4, fifth table): 10.2 nM
- IC50 (Example 4, sixth table): 12.6 nM
- Ki (Example 4, sixth table): 6 nM
